Five molecules from ChEMBL document CHEMBL5390225, “Discovery and structural optimization of a new series of N-acyl-2-aminobenzothiazole as inhibitors of Zika virus” (Bioorg Med Chem, 2023) can be followed below.

The test system of data set [1] is Zika virus. The experiment in a line: Antiviral activity against Zika virus PE243 infected in African green monkey Vero E6 cells assessed as inhibition of viral replication at 10 uM incubated for 72 hrs by immunofluorescence analysis. Type of data set: functional. To be noted: PE243, Vero C1008.
Data set [2] deals with Zika virus. In words: Antiviral activity against Zika virus PE243 infected in African green monkey Vero E6 cells assessed as inhibition of viral replication at 2 uM incubated for 72 hrs by immunofluorescence analysis. Type of data set: functional. To be noted: PE243, Vero C1008.
The nature of data set [3]: Cytotoxicity against African green monkey Vero E6 cells assessed as cell viability at 10 uM measured after 72 hrs by MTT assay relative to control. Type of data set: toxicity, cell-based, Vero C1008. The conditions noted are these: chlorocebus sabaeus, read-out: Activity. (In general: Formazan colour is commonly taken as a measure of viable cells.)
Data set [4] in a line: Cytotoxicity against African green monkey Vero E6 cells assessed as cell viability at 2 uM measured after 72 hrs by MTT assay relative to control. In kind it is toxicity, cell-based, Vero C1008. The conditions noted are these: chlorocebus sabaeus, read-out: Activity.
Data set [5] concerns Zika virus. In words: Antiviral activity against Zika virus PE243 infected in African green monkey Vero E6 cells assessed as inhibition of viral replication incubated for 72 hrs by immunofluorescence analysis. Type of data set: functional, organism-based. To be noted: PE243, Vero C1008, 72 h.
Data set [6] is described as follows: Cytotoxicity against African green monkey Vero E6 cells assessed as reduction in cell viability measured after 72 hrs by MTT assay. In kind it is toxicity, cell-based, Vero C1008. The conditions noted are these: chlorocebus sabaeus.
Data set [7] is described as follows: Selectivity index, ratio of CC50 for cytotoxicity against African green monkey Vero E6 cells to EC50 for antiviral activity against Zika virus PE243 infected in African green monkey Vero E6 cells. Type of data set: toxicity, cell-based, Vero C1008. To be noted: read-out: Ratio CC50/EC50.
The subject of data set [8] is Zika virus. In words: Inhibition of Zika virus BeH823339 NS2B protease (49 to 95 residues) R96A mutant/NS3 protease (1 to 170 residues) R29G/ C80S/C143S mutant expressed in Escherichia coli BL21 (DE3) cells using Bz-Nle-Lys-Lys-Arg-AMC as a fluorogenic substrate at 100 uM by fluorescence-based analysis relative to control.
In data set [9] the test system is Zika virus. In words: Inhibition of Zika virus BeH823339 NS2B protease (49 to 95 residues) R96A mutant/NS3 protease (1 to 170 residues) R29G/ C80S/C143S mutant expressed in Escherichia coli BL21 (DE3) cells using Bz-Nle-Lys-Lys-Arg-AMC as a fluorogenic substrate at 100 uM preincubated with enzyme for 10 mins by fluorescence-based analysis relative to control.
The test system of data set [10] is Zika virus. The experiment in a line: Antiviral activity against Zika virus infected in golden hamster BHK21-RepZIKV_IRES-Neo cells assessed as inhibition of viral replication by measuring reduction in renilla luciferase expression at 10 uM measured after 72 hrs by luciferase reporter gene assay relative to control. Type of data set: functional, Mesocricetus auratus. To be noted: BHK-21. In general terms: Reporter assays use an easily measured gene product as a stand-in for the process of interest.

Data set [11] concerns BHK-21. In words: Cytotoxicity against golden hamster BHK21-RepZIKV_IRES-Neo cells assessed as reduction in cell viability measured after 72 hrs by MTT assay. In kind it is toxicity, cell-based, Mesocricetus auratus. To be noted: bhk-21, 72 h.
The target in data set [12] is Nonstructural protein 3 (Zika virus, UniProt A0A024AXB9). The experiment in a line: Inhibition of N-terminal His-tagged Zika virus NS2B protease (46 to 99 residues)/NS3 protease (1 to 187 residues) expressed in Escherichia coli Rosetta2(DE3) cells using Boc-Gly-Arg-Arg-AMC as substrate preincubated with enzyme for 10 mins followed by substrate addition and measured for 10 mins by fluorescence based analysis.
Nonstructural protein 3, sequence (A0A024AXB9 whole entry, the tested form may be a part): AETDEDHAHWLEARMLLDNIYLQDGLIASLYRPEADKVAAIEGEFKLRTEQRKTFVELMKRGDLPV

Data set [13] is described as follows: Inhibition of Zika virus BeH823339 NS2B protease (49 to 95 residues) R96A mutant/NS3 protease (1 to 170 residues) R29G/ C80S/C143S mutant expressed in Escherichia coli BL21 (DE3) cells using Bz-Nle-Lys-Lys-Arg-AMC as a fluorogenic substrate preincubated with enzyme for 10 mins by fluorescence-based analysis.
For data set [14], the system named is Zika virus. The experiment in a line: Inhibition of Zika virus BeH823339 NS2B protease (49 to 95 residues) R96A mutant/NS3 protease (1 to 170 residues) R29G/ C80S/C143S mutant expressed in Escherichia coli BL21 (DE3) cells using Bz-Nle-Lys-Lys-Arg-AMC as a fluorogenic substrate at 100 uM preincubated with enzyme for 10 mins in presence of 0.001% TritonX-100 by fluorescence-based analysis.

Data set [15] relates to Zika virus. In words: Inhibition of Zika virus BeH823339 NS2B protease (49 to 95 residues) R96A mutant/NS3 protease (1 to 170 residues) R29G/ C80S/C143S mutant expressed in Escherichia coli BL21 (DE3) cells using Bz-Nle-Lys-Lys-Arg-AMC as a fluorogenic substrate at 50 uM preincubated with 2 nM enzyme for 10 mins by fluorescence-based analysis relative to control.
In data set [16] the test system is Zika virus. The experiment in a line: Inhibition of Zika virus BeH823339 NS2B protease (49 to 95 residues) R96A mutant/NS3 protease (1 to 170 residues) R29G/ C80S/C143S mutant expressed in Escherichia coli BL21 (DE3) cells using Bz-Nle-Lys-Lys-Arg-AMC as a fluorogenic substrate at 50 uM preincubated with enzyme for 10 mins in presence of BSA by fluorescence-based analysis relative to control.

The test system of data set [17] is Zika virus. The experiment in a line: Inhibition of Zika virus BeH823339 NS2B protease (49 to 95 residues) R96A mutant/NS3 protease (1 to 170 residues) R29G/ C80S/C143S mutant expressed in Escherichia coli BL21 (DE3) cells using Bz-Nle-Lys-Lys-Arg-AMC as a fluorogenic substrate at 50 uM preincubated with 0.2 nM enzyme for 10 mins by fluorescence-based analysis relative to control.

Data set [18] concerns the target Cruzipain (Trypanosoma cruzi) (UniProt P25779). The experiment in a line: Inhibition of recombinant Trypanosoma cruzi Cruzain using Z-Phe-Arg-AMC as fluorogenic substrate at 50 uM preincubated with enzyme for 10 mins by fluorescence-based analysis relative to control.
Data set [19] concerns Zika virus. The experiment in a line: Inhibition of Zika virus BeH823339 NS2B protease (49 to 95 residues) R96A mutant/NS3 protease (1 to 170 residues) R29G/ C80S/C143S mutant expressed in Escherichia coli BL21 (DE3) cells using Bz-Nle-Lys-Lys-Arg-AMC as a fluorogenic substrate at 25 uM preincubated with enzyme for 10 mins in presence of BSA by fluorescence-based analysis relative to control.

Data set [20] has as its system Zika virus. The experiment in a line: Inhibition of Zika virus BeH823339 NS2B protease (49 to 95 residues) R96A mutant/NS3 protease (1 to 170 residues) R29G/ C80S/C143S mutant expressed in Escherichia coli BL21 (DE3) cells using Bz-Nle-Lys-Lys-Arg-AMC as a fluorogenic substrate at 25 uM preincubated with 0.2 nM enzyme for 10 mins by fluorescence-based analysis relative to control.

For data set [21], the system named is Zika virus. In words: Inhibition of Zika virus BeH823339 NS2B protease (49 to 95 residues) R96A mutant/NS3 protease (1 to 170 residues) R29G/ C80S/C143S mutant expressed in Escherichia coli BL21 (DE3) cells using Bz-Nle-Lys-Lys-Arg-AMC as a fluorogenic substrate at 25 uM preincubated with 2 nM enzyme for 10 mins by fluorescence-based analysis relative to control.

Data set [22] has as its target Cruzipain (Trypanosoma cruzi) (UniProt P25779). The experiment in a line: Inhibition of recombinant Trypanosoma cruzi Cruzain using Z-Phe-Arg-AMC as fluorogenic substrate at 25 uM preincubated with enzyme for 10 mins by fluorescence-based analysis relative to control.
Data set [23] relates to Zika virus. In words: Inhibition of Zika virus BeH823339 NS2B protease (49 to 95 residues) R96A mutant/NS3 protease (1 to 170 residues) R29G/ C80S/C143S mutant expressed in Escherichia coli BL21 (DE3) cells using Bz-Nle-Lys-Lys-Arg-AMC as a fluorogenic substrate at 10 uM preincubated with enzyme for 10 mins in presence of BSA by fluorescence-based analysis relative to control.

Data set [24] deals with Cruzipain (Trypanosoma cruzi) (UniProt P25779). In words: Inhibition of recombinant Trypanosoma cruzi Cruzain using Z-Phe-Arg-AMC as fluorogenic substrate at 12.5 uM preincubated with enzyme for 10 mins by fluorescence-based analysis relative to control.
Cruzipain (Trypanosoma cruzi), sequence (P25779 123-467 limits assumed): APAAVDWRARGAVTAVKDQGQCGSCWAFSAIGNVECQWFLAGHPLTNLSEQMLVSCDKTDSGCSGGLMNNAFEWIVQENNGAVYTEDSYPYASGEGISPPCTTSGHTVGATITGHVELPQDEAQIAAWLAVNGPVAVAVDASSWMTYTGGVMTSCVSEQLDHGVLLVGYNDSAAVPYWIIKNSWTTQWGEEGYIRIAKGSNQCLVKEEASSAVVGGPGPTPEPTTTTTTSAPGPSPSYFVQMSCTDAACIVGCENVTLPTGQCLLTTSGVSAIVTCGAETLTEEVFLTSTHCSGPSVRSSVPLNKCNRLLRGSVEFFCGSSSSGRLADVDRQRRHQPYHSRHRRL
For data set [25], the system named is Zika virus. In words: Inhibition of Zika virus BeH823339 NS2B protease (49 to 95 residues) R96A mutant/NS3 protease (1 to 170 residues) R29G/ C80S/C143S mutant expressed in Escherichia coli BL21 (DE3) cells using Bz-Nle-Lys-Lys-Arg-AMC as a fluorogenic substrate at 12.5 uM preincubated with 0.2 nM enzyme for 10 mins by fluorescence-based analysis relative to control.

Data set [26] has as its system Zika virus. In words: Inhibition of Zika virus BeH823339 NS2B protease (49 to 95 residues) R96A mutant/NS3 protease (1 to 170 residues) R29G/ C80S/C143S mutant expressed in Escherichia coli BL21 (DE3) cells using Bz-Nle-Lys-Lys-Arg-AMC as a fluorogenic substrate at 12.5 uM preincubated with 2 nM enzyme for 10 mins by fluorescence-based analysis relative to control.

Data set [27] has as its system Zika virus. The experiment in a line: Non-competitive inhibition of Zika virus BeH823339 NS2B protease (49 to 95 residues) R96A mutant/NS3 protease (1 to 170 residues) R29G/ C80S/C143S mutant expressed in Escherichia coli BL21 (DE3) cells using 5.5 to 88 uM of Bz-Nle-Lys-Lys-Arg-AMC as a fluorogenic substrate at compound concentration close to IC50 preincubated with enzyme for 10 mins by fluorescence-based analysis relative to control.

As usually defined, the inhibition is the percentage by which the read-out fell short of the control. As a reminder, the EC50 is the concentration giving half of the maximal effect. Usually CC50 stands for the concentration at which the toxic effect on the cells reaches its halfway point. As usually defined, the IC50 is the concentration at which inhibition is half-maximal. Turning to `COc1ccc(S(=O)(=O)Nc2ccc(C(=O)Nc3nc4ccccc4s3)cc2)cc1`, the inhibition at 10 µM in data set [1] came to 74.4%; in data set [10], 63.4%. Moreover, the inhibition at 2 µM in data set [2] is 10.8%. In addition, the viability at 72 h, 10 µM in [3] is 94.8%. The viability at 72 h, 2 µM in data set [4] stood at 88.7%. The EC50 in data set [5] turned out to be 11.1 µM. Moreover, the CC50 at 72 h in data set [6] was 13.3 µM. In data set [7], the selectivity ratio was found to be 1.2. For the same molecule, the inhibition in data set [8] was found to be 38%; in data set [9], 32%. Moreover, in data set [11], the Activity result was “Non-Toxic”. In addition, in data set [12], inhibition was half-maximal at 5.2 µM (IC50).

For the molecule `COc1ccc(S(=O)(=O)Nc2ccccc2C(=O)Nc2nc3ccccc3s2)cc1`, the inhibition at 10 µM in [1] was 1%. For the same molecule, in data set [2], the inhibition at 2 µM worked out at 5.4%. Further, the viability at 72 h, 10 µM in data set [3] came out at 104%. Moreover, in [4], the viability at 72 h, 2 µM came out at 98.5%. In addition, the inhibition was determined as 92% in data set [8]; 100% in data set [9]; 53% in data set [14]; 25% in [15]; 20% in [16]; 39% in [17]. Further, the inhibition in data set [18] was 96%. In data set [13], this molecule registered an IC50 of 24 µM.

Regarding `COc1ccc(S(=O)(=O)Nc2ccccc2C(=O)Nc2nccs2)cc1`, the values for the inhibition at 10 µM in data set [1] and in data set [10] were 100% and 75.5%, respectively. Further, the inhibition at 2 µM in data set [2] stood at 68.6%. In data set [3], the viability at 72 h, 10 µM was 34.8%. Also, the viability at 72 h, 2 µM in data set [4] is 36.2%. The EC50 in [5] was 5 µM. Further, in data set [6], the CC50 at 72 h worked out at 38.7 µM. Besides, in data set [7], the selectivity ratio came to 7.7. For the same molecule, the inhibition in data set [8] came to 62%; in [9] it was 100%; in [14], 24%; in data set [19], 5%; in data set [20], 43%; in data set [21], 20%. Further, the inhibition in data set [22] was 20%. It took 26 µM to reach half-maximal inhibition in data set [13] (IC50). In data set [11], the Activity result is reported as “Non-Toxic”.

As to `O=C(Nc1nc2ccccc2s1)c1ccc(NC(=S)Nc2ccccc2)cc1`, the inhibition at 10 µM in data set [1] came to 73.6%. The inhibition at 2 µM in data set [2] is 9.4%. Also, in data set [3], the viability at 72 h, 10 µM came out at 29%. Further, the viability at 72 h, 2 µM in data set [4] stood at 96%. The inhibition is 46% in [8]; 99% in data set [9]; 46% in data set [14]; 12% in [23]; 72% in data set [24]; 15% in [25]. The figures for the inhibition in data set [26] and in [27] were 9% and 25%, respectively. This molecule also returned a 50% inhibitory concentration (IC50) in data set [13] of 8 µM.

Take `COc1ccc(OC)c(S(=O)(=O)NCC(=O)Nc2nc3ccccc3s2)c1`: the inhibition at 10 µM in data set [1] was 7.9%. In addition, the inhibition at 2 µM in data set [2] was found to be 8.3%. In addition, the viability at 72 h, 10 µM in data set [3] was determined as 102%. In addition, the viability at 72 h, 2 µM in [4] came to 112%. Further, the inhibition in data set [8] is 51%; in [9], 93%; in data set [14], 12%; in data set [19], 11%; in [20], 28%; in data set [21], 12%. Besides, in data set [22], the inhibition worked out at 3%. Further, the half-maximal inhibitory concentration (IC50) in data set [13] turned out to be 24 µM.
